# According to patent US8093281B2, “Indazoles as glucocorticoid receptor ligands” (Glaxo Group Limited, priority 2005, dated 2012):
# System: NFkB activity
# Assay: Glucocorticoid mediated transrepression of NFkB activity (A549 cells, ELAM promoter alkaline phosphatase reporter, TNFα stimulated)
# Assay type: cell-based
# Settings: Homo sapiens, A549, 16 h, Human A549 lung epithelial cells, 3 ng/ml human recombinant TNFα, read-out: pEC50, transrepression of NFkB activity (converted)
# Source text: Human A549 lung epithelial cells were engineered to contain a secreted placental alkaline phosphatase gene under the control of the distal region of the NFkB dependent ELAM promoter as previously described in Ray, K. P., Farrow, S., Daly, M., Talabot, F. and Searle, N. “Induction of the E-selectin promoter by interleukin 1 and tumour necrosis factor alpha, and inhibition by glucocorticoids” Biochemical Journal (1997) 328: 707-15.
# Compounds were solvated and diluted in DMSO, and transferred directly into assay plates such that the final concentration of DMSO was 0.7%. Following the addition of cells (40K per well), plates were incubated for 1 hr prior to the addition of 3 ng/ml human recombinant TNFα. Following continued incubation for 16 hr, alkaline phosphatase activity was determined by measuring the change in optical density at 405 nm with time following the addition of 0.7 volumes of assay buffer (1 mg/ml p-nitrophenylphosphate dissolved in 1M diethanolamine, 0.28M NaCl, 0.5 mM MgCl2). Dose response curves were constructed from which EC50 values were estimated.
row,EC50,SMILES
1,< 3.16 nM,"COc1ccc(F)cc1C(C)(C)CC(O)(CNc1cc(C)cc2c1cnn2-c1ccc(F)cc1F)C(F)(F)F (racemic) [Example 16, 2-({[1-(2,4-Difluorophenyl)-6-methyl-1H-indazol-4-yl]amino}methyl)-1,1,1-trifluoro-4-[5-fluoro-2-(methyloxy)phenyl]-4-methyl-2-pentanol]"
2,< 3.16 nM,"COc1ccc(-n2ncc3c(NCC(O)(CC(C)(C)c4cccc5c4OCC5)C(F)(F)F)cccc32)cc1 (racemic) [Example 28, 4-(2,3-Dihydro-1-benzofuran-7-yl)-1,1,1-trifluoro-4-methyl-2-[({1-[4-(methyloxy)phenyl]-1H-indazol-4-yl}amino)methyl]-2-pentanol]"
3,< 3.16 nM,"CC(C)(CC(O)(CNc1cccc2c1cnn2-c1ccccc1F)C(F)(F)F)c1cccc2c1OCC2 (racemic) [Example 10, 4-(2,3-Dihydro-1-benzofuran-7-yl)-1,1,1-trifluoro-2-({[1-(2-fluorophenyl)-1H-indazol-4-yl]amino}methyl)-4-methyl-2-pentanol]"
4,< 3.16 nM,"CCOC(=O)c1cccc(-n2ncc3c(NCC(O)(CC(C)(C)c4cc(F)ccc4OC)C(F)(F)F)cccc32)c1 (racemic) [Example 6, Ethyl 3-(4-{[4-[5-fluoro-2-(methyloxy)phenyl]-2-hydroxy-4-methyl-2-(trifluoromethyl)pentyl]amino}-1H-indazol-1-yl)benzoate]"
5,< 3.16 nM,"CC(C)(CC(O)(CNc1cccc2c1cnn2-c1ccccc1)C(F)(F)F)c1cccc2c1OCC2 (racemic) [Example 8, 4-(2,3-Dihydro-1-benzofuran-7-yl)-1,1,1-trifluoro-4-methyl-2-{[(1-phenyl-1H-indazol-4-yl)amino]methyl}-2-pentanol]"
6,< 3.16 nM,"Cc1cc(NC[C@](O)(CC(C)(C)c2cc(F)ccc2O)C(F)(F)F)c2cnn(-c3ccc(F)cc3F)c2c1 [Example 18, 2(R)-2-[3-({[1-(2,4-Difluorophenyl)-6-methyl-1H-indazol-4-yl]amino}methyl)-4,4,4-trifluoro-3-hydroxy-1,1-dimethylbutyl]-4-fluorophenol]"
7,< 3.16 nM,"COC(=O)c1cccc(-n2ncc3c(NCC(O)(CC(C)(C)c4cc(F)ccc4OC)C(F)(F)F)cccc32)c1 (single isomer, unassigned) [Example 14-B, Methyl 3-(4-{[4-[5-fluoro-2-(methyloxy)phenyl]-2-hydroxy-4-methyl-2-(trifluoromethyl)pentyl]amino}-1H-indazol-1-yl)benzoate]"
8,< 3.16 nM,"COc1ccc(F)cc1C(C)(C)CC(O)(CNc1cccc2c1cnn2-c1ccccc1F)C(F)(F)F (single isomer, unassigned) [Example 1-A, 1,1,1-Trifluoro-4-[5-fluoro-2-(methyloxy)phenyl]-2-({[1-(2-fluorophenyl)-1H-indazol-4-yl]amino}methyl)-4-methyl-2-pentanol]"
9,< 3.16 nM,"CCOC(=O)c1cccc(-n2ncc3c(NCC(O)(CC(C)(C)c4cc(F)ccc4OC)C(F)(F)F)cc(C)cc32)c1 (stereo not drawn) [Example 27, Ethyl 3-(4-{[4-[5-fluoro-2-(methyloxy)phenyl]-2-hydroxy-4-methyl-2-(trifluoromethyl)pentyl]amino}-6-methyl-1H-indazol-1-yl)benzoate]"
10,< 3.16 nM,"CCOC(=O)c1cccc(-n2ncc3c(NCC(O)(CC(C)(C)c4cc(F)ccc4OC)C(F)(F)F)cccc32)c1 (single isomer, unassigned) [Example 6-B, Ethyl 3-(4-{[4-[5-fluoro-2-(methyloxy)phenyl]-2-hydroxy-4-methyl-2-(trifluoromethyl)pentyl]amino}-1H-indazol-1-yl)benzoate]"

# Second part, the compound before the results:
row,SMILES,EC50
1,"COC(=O)c1cccc(-n2ncc3c(NCC(O)(CC(C)(C)c4cc(F)ccc4OC)C(F)(F)F)cccc32)c1 (racemic) [Example 14, Methyl 3-(4-{[4-[5-fluoro-2-(methyloxy)phenyl]-2-hydroxy-4-methyl-2-(trifluoromethyl)pentyl]amino}-1H-indazol-1-yl)benzoate]",< 3.16 nM
2,"COc1ccc(F)cc1C(C)(C)CC(O)(CNc1cccc2c1cnn2-c1ccc(F)cc1)C(F)(F)F (racemic) [Example 2, 1,1,1-Trifluoro-4-[5-fluoro-2-(methyloxy)phenyl]-2-({[1-(4-fluorophenyl)-1H-indazol-4-yl]amino}methyl)-4-methyl-2-pentanol]",< 3.16 nM
3,"COc1ccc(F)cc1C(C)(C)CC(O)(CNc1cc(C)cc2c1cnn2-c1ccccc1)C(F)(F)F (racemic) [Example 15, 1,1,1-Trifluoro-4-[5-fluoro-2-(methyloxy)phenyl]-4-methyl-2-{[(6-methyl-1-phenyl-1H-indazol-4-yl)amino]methyl}-2-pentanol]",< 3.16 nM
4,"COc1ccc(F)cc1C(C)(C)CC(O)(CNc1cccc2c1cnn2-c1ccc(F)cc1)C(F)(F)F (single isomer, unassigned) [Example 2-B, 1,1,1-Trifluoro-4-[5-fluoro-2-(methyloxy)phenyl]-2-({[1-(4-fluorophenyl)-1H-indazol-4-yl]amino}methyl)-4-methyl-2-pentanol]",< 3.16 nM
5,"COc1ccc(F)cc1C(C)(C)CC(O)(CNc1cccc2c1cnn2-c1ccc(F)cc1F)C(F)(F)F (racemic) [Example 4, 2-({[1-(2,4-Difluorophenyl)-1H-indazol-4-yl]amino}methyl)-1,1′-trifluoro-4-[5-fluoro-2-(methyloxy)phenyl]-4-methyl-2-pentanol]",< 3.16 nM
6,"CCOC(=O)c1cccc(-n2ncc3c(NCC(O)(CC(C)(C)c4cccc5c4OCC5)C(F)(F)F)cccc32)c1 (racemic) [Example 9, Ethyl 3-(4-{[4-(2,3-dihydro-1-benzofuran-7-yl)-2-hydroxy-4-methyl-2-(trifluoromethyl)pentyl]amino}-1H-indazol-1-yl)benzoate]",< 3.16 nM
7,"CC(C)(CC(O)(CNc1cccc2c1cnn2-c1ccncc1)C(F)(F)F)c1cccc2c1OCC2 (racemic) [Example 13, 4-(2,3-Dihydro-1-benzofuran-7-yl)-1,1,1-trifluoro-4-methyl-2-({[1-(4-pyridinyl)-1H-indazol-4-yl]amino}methyl)-2-pentanol]",< 3.16 nM
8,"CC(C)(CC(O)(CNc1cccc2c1cnn2-c1ccc(F)cc1)C(F)(F)F)c1cccc2c1OCC2 (racemic) [Example 11, 4-(2,3-Dihydro-1-benzofuran-7-yl)-1,1,1-trifluoro-2-({[1-(4-fluorophenyl)-1H-indazol-4-yl]amino}methyl)-4-methyl-2-pentanol]",< 3.16 nM
9,"COc1ccc(F)cc1C(C)(C)CC(O)(CNc1cccc2c1cnn2-c1ccccc1F)C(F)(F)F (racemic) [Example 1, 1,1,1-Trifluoro-4-[5-fluoro-2-(methyloxy)phenyl]-2-({[1-(2-fluorophenyl)-1H-indazol-4-yl]amino}methyl)-4-methyl-2-pentanol]",< 3.16 nM
10,"CC(C)(CC(O)(CNc1cccc2c1cnn2-c1ccc(F)cc1F)C(F)(F)F)c1cccc2c1OCC2 (racemic) [Example 12, 2-({[1-(2,4-Difluorophenyl)-1H-indazol-4-yl]amino}methyl)-4-(2,3-dihydro-1-benzofuran-7-yl)-1,1,1-trifluoro-4-methyl-2-pentanol]",< 3.16 nM
11,"COc1ccc(F)cc1C(C)(C)CC(O)(CNc1cc(C)cc2c1cnn2-c1ccccc1F)C(F)(F)F (racemic) [Example 25, 1,1,1-Trifluoro-4-[5-fluoro-2-(methyloxy)phenyl]-2-({[1-(2-fluorophenyl)-6-methyl-1H-indazol-4-yl]amino}methyl)-4-methyl-2-pentanol]",< 3.16 nM
12,"COc1cccc(-n2ncc3c(NCC(O)(CC(C)(C)c4cc(F)ccc4OC)C(F)(F)F)cc(C)cc32)c1 (stereo not drawn) [Example 22, 1,1,1-Trifluoro-4-[5-fluoro-2-(methyloxy)phenyl]-4-methyl-2-[({6-methyl-1-[3-(methyloxy)phenyl]-1H-indazol-4-yl}amino)methyl]-2-pentanol]",< 3.16 nM
13,"COc1ccc(F)cc1C(C)(C)CC(O)(CNc1cc(C)cc2c1cnn2-c1cccc(O)c1)C(F)(F)F (stereo not drawn) [Example 23, 3-(4-{[4-[5-Fluoro-2-(methyloxy)phenyl]-2-hydroxy-4-methyl-2-(trifluoromethyl)pentyl]amino}-6-methyl-1H-indazol-1-yl)phenol]",< 3.16 nM
14,"COc1ccc(-n2ncc3c(NCC(O)(CC(C)(C)c4cc(F)ccc4OC)C(F)(F)F)cc(C)cc32)cc1 (stereo not drawn) [Example 19, 1,1,1-Trifluoro-4-[5-fluoro-2-(methyloxy)phenyl]-4-methyl-2-[({6-methyl-1-[4-(methyloxy)phenyl]-1H-indazol-4-yl}amino)methyl]-2-pentanol]",< 3.16 nM
